# Results taken from PMC9243654 (Frontiers in Nutrition, 2022).
# Where two headings read alike, the source gives them in different places.
# Tests used:
# [1] = in vitro
# Description: The PAMPA-BBB assay was conducted according to the methodology followed by Di et al., with some modifications as described below ([15]). First, the BBB solution was prepared by dissolving 8 mg of PBL and 4 mg of cholesterol in 600 μl of n-dodecane. The initial donor solution was prepared by mixing 1 ml of extract (10 mg ml^−1 in EtOH) with 1 ml of buffer (PBS, pH = 7.4, 10 mM). The filter membrane of the donor plate was carefully coated with 5 μl of BBB solution. The acceptor plate was filled with 350 μl of buffer, and the donor plate was carefully assembled over the acceptor plate like a “sandwich.” Finally, the donor plate was filled with 350 μl of donor solution, covered, and incubated for 4 h at 37°C in the dark. After incubation time, 300 μl of the solution was taken from both plates, transferred to separate vials, and dried in the SpeedVac system at 40°C and 13 mbar pressure. Dried acceptor and donor solution were dissolved in 50 μl of pure EtOH before subjecting to UHPLC-Q-TOF-MS analysis. Permeability across in vitro BBB of the bioactive compound was measured according to Equation (1) ([25]), with some modifications in concentration rates.
# (1) Pe=-ln[1-CA(t)/Ce]/A^*(1/VD+1/VA)^*t
# Cequilibrium was calculated according to the following equation ([2]):
# (2) Cequilibrium=[CD(t)*VD+CA(t)*VA]/(VD+VA)
# [2] = ref PubChem database, cited from earlier work
# [3] = compound within KD extract, 4 h, 37°C, PBS pH 7.4
# [4] = compound within LPLE (Nothofagus pumilio, lenga PLE extract), classes based on Könczöl et al.
# [5] = compounds identified in LPLE extract
# [6] = compounds of RSFE extract, octanol-water partition coefficient
# [7] = PAMPA, pH 7.4, PAMPA-BBB log Pe (cm s−1)
compound,measurement,setting,value
CC(=O)O[C@H]1CC[C@]2(CO)[C@H]3CC[C@]4(C)[C@@H](c5ccc(=O)oc5)CC[C@]4(O)[C@@H]3CC[C@]2(O)C1 [Hellebrigenol-3-monoacetate],Cross BBB potential,[1]; compound within KD extract,++ (log Pe > −5.5)
same,PAMPA-BBB log Pe (cm s−1),[1]; [3],−4.70 cm s−1
same,Log P,[2]; compounds of KD extract,1.6
Resibufagin,Cross BBB potential,[1]; compound within KD extract,-
same,Log P,[2]; compounds of KD extract,2.4
CC(=O)O[C@@H]1C[C@H](O)C[C@@]2(O)CC[C@@H]3[C@@H]4[C@@H](C[C@]5(C)[C@@H](c6ccc(=O)oc6)CC[C@]35O)O[C@H](O)[C@]412 [Bryophyllin B],Cross BBB potential,[1]; compound within KD extract,-
same,Log P,[2]; compounds of KD extract,0.6
CC12O[C@H]3C[C@@H](O1)[C@]1(C=O)[C@H]4[C@H](O)C(=O)[C@]5(C)[C@@H](c6ccc(=O)oc6)CC[C@]5(O)[C@@H]4CC[C@@]1(C3)O2 [Daigremontianin],detection in the acceptor plate of PAMPA-BBB,[1]; PAMPA,could not be found in the acceptor plate
same,Cross BBB potential,[1]; compound within KD extract,++ (log Pe > −5.5)
same,PAMPA-BBB log Pe (cm s−1),[1]; [3],−4.53 cm s−1
same,Log P,[2]; compounds of KD extract,−0.3
COc1ccc([C@@H]2CC(=O)c3c(O)cc(O[C@@H]4O[C@H](CO[C@@H]5O[C@@H](C)[C@H](O)[C@@H](O)[C@H]5O)[C@@H](O)[C@H](O)[C@H]4O)cc3O2)cc1O [Hesperidin],Cross BBB potential,[1]; compound within ASFE extract,-
same,Cross BBB potential,[1]; [4],-
same,Log P,[2]; [5],−1.1
same,Log P,[2]; compounds of ASFE extract,−1.1
CC(C)c1cc2c(c(O)c1O)[C@@]13CCCC(C)(C)[C@@H]1C[C@@H]2OC3=O [Carnosol],Papp at 4 h,"[1]; PAMPA, pH 7.4, PAMPA-BBB log Pe (cm s−1), compound within RSFE extract, 4 h, 37°C, PBS pH 7.4",50.1 ×10⁻⁶ cm/s
same,Cross BBB potential,[1]; compound within RSFE extract,+++ (log Pe > −4.5)
same,Log P,[2]; [6],4.4
C[C@@H]1C(=O)C[C@@H](C(C)(C)O)O[C@@H]2C[C@@]3(C)[C@@H]4CC=C5[C@@H](C=C(O)C(=O)C5(C)C)[C@]4(C)C(=O)C[C@]3(C)[C@@H]12 [Cucurbitacin S],Cross BBB potential,[1]; [4],-
same,Log P,[2]; [5],3.2
same,Log P,[2]; compounds of ASFE extract,3.2
CC(C)c1cc2c(cc1O)[C@@]1(C)CCCC(C)(C)[C@@H]1CC2=O [Sugiol],Cross BBB potential,[1]; PAMPA,++
same,Papp at 4 h,[1]; [7],4.57 ×10⁻⁶ cm/s
same,Log P,[2]; [6],5.6
CC(CC(=O)CC(C)C1CC(O)C2(C)C3=C(C(=O)CC12C)C1(C)CCC(O)C(C)(CO)C1CC3)C(=O)O (stereo not shown) [Ganolucidic acid C],Cross BBB potential,[1]; compound within ASFE extract,-
same,Cross BBB potential,[1]; [4],-
same,Log P,[2]; [5],3.1
same,Log P,[2]; compounds of ASFE extract,3.1
C[C@H]1[C@H](C)CC[C@]2(C(=O)O)CC[C@]3(C)C(=CC[C@@H]4[C@@]5(C)C[C@@H](O)[C@H](O)C(C)(C)[C@@H]5CC[C@]43C)[C@H]12 [Corosolic acid],Cross BBB potential,[1]; PAMPA,++
same,Papp at 4 h,[1]; [7],6.03 ×10⁻⁶ cm/s
same,Papp at 4 h,"[1]; PAMPA, pH 7.4, PAMPA-BBB log Pe, compound within LPLE (Nothofagus pumilio, lenga PLE extract), N.D = not detected in acceptor",8.51 ×10⁻⁶ cm/s
same,Log P,[2]; [5],6.4
COc1c(O[C@@H]2O[C@H](CO)[C@@H](O)[C@H](O)[C@H]2O)cc2oc(-c3ccc(O)cc3)cc(=O)c2c1O [Homoplantaginin],Cross BBB potential,[1]; PAMPA,+++
same,PAMPA-BBB log Pe (cm s−1),"[1]; PAMPA, 4 h, pH 7.4",−4.24 cm s−1
same,Log P,[2]; [6],0.8
CC(C)c1cc2c(c(O)c1O)[C@@]13CCCC(C)(C)[C@@H]1C[C@@H]2OC3 [20-Deoxocarnosol],Cross BBB potential,[1]; compound within RSFE extract,-
same,Log P,[2]; [6],4.6
OC[C@H]1O[C@@H](Oc2cc(O)cc(/C=C/c3ccc(O)cc3)c2)[C@H](O)[C@@H](O)[C@@H]1O [Piceid],Cross BBB potential,[1]; [4],-
same,Log P,[2]; [5],1.7
same,Log P,[2]; compounds of ASFE extract,1.7
C=C(C)[C@@H]1CC[C@]2(C(=O)O)CC[C@]3(C)[C@H](CC[C@@H]4[C@@]5(C)CC[C@H](O)C(C)(C)[C@@H]5CC[C@]43C)[C@@H]12 [Betulinic acid],Cross BBB potential,[1]; PAMPA,+
same,Papp at 4 h,[1]; [7],0.229 ×10⁻⁶ cm/s
same,Log P,[2]; [6],8.2
Notohamosine B,Cross BBB potential,[1]; PAMPA,++
same,PAMPA-BBB log Pe (cm s−1),"[1]; PAMPA, 4 h, pH 7.4",−4.62 cm s−1
same,Log P,[2]; [6],5.6
